The numbers were not newly measured in patent US20060247203A1, “Freeze-dried preparation containing methylcobalamin and process for producing the same” (EISAI CO., LTD., priority 2003, published 2006), which cites them from elsewhere.

For this data set, the system named is patients with amyotrophic lateral sclerosis. The note with it: ALS patients; methylcobalamin 15 to 50 mg/once daily via intramuscular injection.

Structures are written as SMILES.

With `C/C1=C2/[N-][C@H]([C@H](CC(N)=O)[C@@]2(C)CCC(=O)NC[C@@H](C)OP(=O)([O-])O[C@H]2[C@@H](O)[C@@H](n3cnc4cc(C)c(C)cc43)O[C@@H]2CO)[C@]2(C)N=C(/C(C)=C3N=C(/C=C4N=C1[C@@H](CCC(N)=O)C\4(C)C)[C@@H](CCC(N)=O)[C@]\3(C)CC(N)=O)[C@@H](CCC(N)=O)[C@]2(C)CC(N)=O.[CH3-].[Co+3]` [methylcobalamin], the “magnitude of compound muscle action potential” value is on record as “significant increase” and the subjective muscle strength entry is “dose-dependent improvement”.
